Key:
Assay type in all cases: biochemical
[1] = biological target: T1, HDAC3 (Homo sapiens, UniProt O15379); experiment: Histone deacetylase assay (HDAC-Glo I/II); conditions: 10 μM, result in words
T1 construct: purchased BPS Bioscience (San Diego, USA)
Procedure: (§1) Cytotoxicity was also determined against 786-O and A549 cells.
(§2) Experiments for determining pre-clinical in vitro ADME-Tox activities were performed as described by Moraes et al. and also described in the following sections 4.3.2.1 to 4.3.2.4.
(§3) Inhibition of histone deacetylase (HDAC) enzymes was determined using the bioluminogenic HDAC-Glo™ I/II assay (Promega Corp.) in 384-well assay format. Human recombinant HDAC enzymes were purchased from BPS Bioscience (San Diego, USA) and the standard inhibitor trichostatin A (Sigma-Aldrich) was dissolved to a yield stock solution in 100% v/v DMSO (stored at −20 °C). Plate handling was performed using a Cell Explorer HTS platform equipped with an Echo 550® Liquid Handler and Multidrop liquid handling system with luminescence measurements taken using an EnVision® multilabel 2103 reader. Compounds were added to plates (100 nL/well; 1% v/v DMSO) and the HDAC-Glo™ I/II assay reagent was prepared by (i) rehydration of lyophilised HDAC-Glo™ I/II substrate (with an acetylated peptide concentration of 100 μM) in 10 mL HDAC-Glo™ I/II assay buffer and (ii) addition of 10 μL of developer reagent (containing trypsin). The microtiter plates were mixed briefly by orbital shaking (500–700 rpm) and luminescence was measured at steady-state signal:background which was achieved after 20 min. The raw data were normalised relative to the positive and negative controls yielding the % inhibition for each compound.

[2] = biological target: T2, HDAC1 (Homo sapiens, UniProt Q13547); experiment: Histone deacetylase assay (HDAC-Glo I/II); conditions: 10 μM, result in words
T2 construct: purchased BPS Bioscience (San Diego, USA)
T2 sequence (Q13547 whole entry): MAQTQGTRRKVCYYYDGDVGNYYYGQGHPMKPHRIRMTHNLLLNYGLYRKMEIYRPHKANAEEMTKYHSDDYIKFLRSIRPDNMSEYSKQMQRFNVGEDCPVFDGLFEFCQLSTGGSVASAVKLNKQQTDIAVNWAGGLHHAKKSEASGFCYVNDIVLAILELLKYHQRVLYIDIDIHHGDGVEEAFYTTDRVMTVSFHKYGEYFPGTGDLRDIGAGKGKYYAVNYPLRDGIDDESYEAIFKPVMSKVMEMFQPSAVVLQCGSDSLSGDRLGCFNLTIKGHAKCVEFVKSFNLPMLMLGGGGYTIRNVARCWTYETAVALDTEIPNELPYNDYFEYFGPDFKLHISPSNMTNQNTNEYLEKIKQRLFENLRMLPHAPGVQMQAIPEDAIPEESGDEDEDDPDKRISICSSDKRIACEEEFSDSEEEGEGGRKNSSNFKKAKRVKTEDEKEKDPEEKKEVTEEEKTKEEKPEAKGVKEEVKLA
Procedure: as §1, §2, §3

[3] = biological target: T3, HDAC6 (Homo sapiens, UniProt Q9UBN7); experiment: Histone deacetylase assay (HDAC-Glo I/II); conditions: 10 μM, result in words
T3 construct: purchased BPS Bioscience (San Diego, USA)
T3 sequence (Q9UBN7 1-1215): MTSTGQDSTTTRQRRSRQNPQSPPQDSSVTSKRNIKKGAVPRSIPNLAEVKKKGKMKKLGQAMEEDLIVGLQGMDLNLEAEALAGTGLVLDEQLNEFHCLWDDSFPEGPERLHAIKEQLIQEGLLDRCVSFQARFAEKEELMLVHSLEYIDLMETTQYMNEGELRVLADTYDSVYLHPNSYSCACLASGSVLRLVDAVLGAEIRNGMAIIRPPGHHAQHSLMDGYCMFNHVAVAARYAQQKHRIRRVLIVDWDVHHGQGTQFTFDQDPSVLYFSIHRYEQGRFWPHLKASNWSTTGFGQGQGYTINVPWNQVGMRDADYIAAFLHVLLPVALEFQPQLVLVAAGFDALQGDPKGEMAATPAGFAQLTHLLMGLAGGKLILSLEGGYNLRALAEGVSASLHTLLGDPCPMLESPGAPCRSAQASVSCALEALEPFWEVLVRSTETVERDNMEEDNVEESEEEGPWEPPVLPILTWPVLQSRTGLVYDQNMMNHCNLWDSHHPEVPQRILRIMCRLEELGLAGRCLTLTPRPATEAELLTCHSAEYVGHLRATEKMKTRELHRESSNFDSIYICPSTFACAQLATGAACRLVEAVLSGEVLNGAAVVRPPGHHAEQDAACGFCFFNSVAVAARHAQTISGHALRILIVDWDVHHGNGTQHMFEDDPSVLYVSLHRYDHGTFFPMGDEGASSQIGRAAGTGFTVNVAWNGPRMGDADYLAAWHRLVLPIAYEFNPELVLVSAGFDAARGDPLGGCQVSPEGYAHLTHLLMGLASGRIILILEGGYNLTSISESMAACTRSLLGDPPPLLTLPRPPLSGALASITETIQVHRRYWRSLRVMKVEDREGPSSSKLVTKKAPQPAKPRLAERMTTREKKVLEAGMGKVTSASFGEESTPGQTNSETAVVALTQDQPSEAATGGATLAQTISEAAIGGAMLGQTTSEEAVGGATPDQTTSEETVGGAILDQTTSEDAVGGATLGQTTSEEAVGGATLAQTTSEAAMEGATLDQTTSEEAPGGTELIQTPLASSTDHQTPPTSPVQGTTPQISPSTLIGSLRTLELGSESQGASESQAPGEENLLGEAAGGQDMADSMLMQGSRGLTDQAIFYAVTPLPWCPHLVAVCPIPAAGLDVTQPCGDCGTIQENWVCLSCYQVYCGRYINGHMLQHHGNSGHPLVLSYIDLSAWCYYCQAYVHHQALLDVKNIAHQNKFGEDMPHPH
Procedure: as §1, §2, §3

[4] = biological target: rhodesain (Trypanosoma brucei rhodesiense, UniProt Q95PM0); experiment: In vitro rhodesain enzyme assay (Cbz-Phe-Arg-AMC substrate); conditions: compound at 50 μM; Cbz-Phe-Arg-AMC substrate 10, 5 and 1.25 μM; read-out: inhibition of rhodesain enzymatic activity
Chain of rhodesain (Q95PM0 entry or part of it): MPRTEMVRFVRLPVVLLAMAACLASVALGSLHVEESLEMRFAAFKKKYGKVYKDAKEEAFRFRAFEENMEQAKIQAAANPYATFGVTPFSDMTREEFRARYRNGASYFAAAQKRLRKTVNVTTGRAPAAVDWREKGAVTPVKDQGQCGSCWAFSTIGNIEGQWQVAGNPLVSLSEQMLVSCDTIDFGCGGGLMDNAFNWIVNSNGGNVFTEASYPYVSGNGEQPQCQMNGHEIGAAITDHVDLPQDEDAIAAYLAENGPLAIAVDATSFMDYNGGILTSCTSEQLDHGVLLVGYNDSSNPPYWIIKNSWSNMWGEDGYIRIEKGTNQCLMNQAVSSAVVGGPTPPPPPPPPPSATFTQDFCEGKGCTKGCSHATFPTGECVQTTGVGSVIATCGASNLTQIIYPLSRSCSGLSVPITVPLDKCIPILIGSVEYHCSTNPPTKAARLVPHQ
Procedure: Enzyme assays with rhodesain were performed as described previously [[36], [37], [38]]. The assay buffer consisted of 50 mM sodium acetate (pH 5.5), 5 mM EDTA, 200 mM NaCl and 0.005% Brij35. The enzyme buffer consisted of 50 mM sodium acetate (pH 5.5), 5 mM EDTA, 200 mM NaCl and 2 mM DTT. The substrate Cbz-Phe-Arg-AMC (Bachem, purchased as HCl salt) was diluted from a 1 mM stock solution to reach concentrations of 10, 5 and 1.25 μM. […] Inhibition against rhodesain was measured using Cbz-Phe-Arg-AMC as the substrate, which releases AMC (7-amino-4-methylcoumarin) after amide bond cleavage by the enzyme. Proteolytic activity of the enzyme was monitored spectrophotometrically by the increase of fluorescence intensity by release of AMC (emission at 460 nm) upon hydrolysis.

T1 sequence (O15379 whole entry): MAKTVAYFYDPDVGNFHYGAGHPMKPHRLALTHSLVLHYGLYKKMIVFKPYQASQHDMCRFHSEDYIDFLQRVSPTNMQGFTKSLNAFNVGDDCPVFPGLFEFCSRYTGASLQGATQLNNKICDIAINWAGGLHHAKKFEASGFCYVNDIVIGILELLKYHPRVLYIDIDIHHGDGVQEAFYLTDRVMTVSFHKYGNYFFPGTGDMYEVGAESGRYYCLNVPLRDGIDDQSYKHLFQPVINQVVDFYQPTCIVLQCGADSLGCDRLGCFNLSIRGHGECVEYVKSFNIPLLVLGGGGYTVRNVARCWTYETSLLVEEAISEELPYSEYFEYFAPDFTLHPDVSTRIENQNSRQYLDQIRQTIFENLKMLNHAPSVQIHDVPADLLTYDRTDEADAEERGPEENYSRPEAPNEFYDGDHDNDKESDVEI
T1 sequence (Q9Y618 395-489 partner limits assumed): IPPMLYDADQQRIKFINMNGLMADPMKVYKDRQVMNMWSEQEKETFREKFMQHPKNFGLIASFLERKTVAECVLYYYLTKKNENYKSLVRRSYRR

Structure (SMILES): COc1ccccc1-c1cc(-c2cccnc2)nc(N)n1 [Compound 13, 4-(2-Methoxyphenyl)-6-(pyridin-3-yl)pyrimidin-2-amine]
- HDAC3 inhibition [1]: No inhibition
- HDAC1 inhibition [2]: No inhibition
- HDAC6 inhibition [3]: No inhibition
- inhibition at 50 µM [4]: ≤ 15%

— publication PMC7762786, “The discovery of novel antitrypanosomal 4-phenyl-6-(pyridin-3-yl)pyrimidines” (European Journal of Medicinal Chemistry, 2021)
